Values joined by “and” are separate entries in the source; they are usually repeats but may differ in a detail not shown here. Equal values may be shown once. Read-outs that look alike come from different tables or passages of the source.
Legend:
[1] = tested on: Influenza A PR8 virus; design: toxicity at upper limit: dose or concentration left out as unconfirmed; conditions: cited from earlier work
[2] = tested on: cells; assay: Plaque reduction and cytotoxicity in cells; assay type: cell-based
Text: It is well known in virology that cells injured due to toxic substances will not support the growth of viruses.

[3] = tested on: Herpes virus
[4] = tested on: polio and Vaccinia virus; conditions: cytopathic effect; cited from earlier work
[5] = tested on: Herpes virus; assay: Herpes virus in chicken eggs, single dose 24 hours pre-infection; assay type: in vivo, chick embryo
[6] = tested on: Influenza, Ann Arbor virus; assay: Influenza Ann Arbor in mice, oral; schedule by table; late read day 5 (Tables 15, 25, 29, 30), 6 (18, 20, 22, 23, 26, 27, 28, 54), 7 (14, 19, 21, 24, 53, 56), 8 (16, 17, 51), 9 (11, 55); assay type: in vivo, mouse
[7] = tested on: Influenza PR 8 virus; assay: Influenza PR 8 in mice, oral; schedule by table; late read day 6 (Table 37), 7 (33, 36), 8 (32, 35, 47), 10 (38); control fraction 18/20 (Table 32), 19/20 (Table 35), else 100%; assay type: in vivo, mouse
[8] = tested on: Influenza PR 8 virus; assay: Influenza PR 8 in mice, subcutaneous; late read day 6 (Table 37), 8 (Table 47); assay type: in vivo, mouse
[9] = tested on: Influenza PR 8 virus; assay: Influenza PR 8 in mice, intraperitoneal (Table 47); assay type: in vivo, mouse
[10] = tested on: Mengo virus; assay: Mengo virus in mice, oral; assay type: in vivo, mouse
Text: The results are illustrated in Table 43.

[11] = tested on: Vaccinia IHD virus; assay type: in vivo, mouse
[12] = tested on: Vaccinia virus; assay type: in vivo, rabbit
[13] = tested on: Vaccinia virus; design: species or system fertile eggs; conditions: various concentrations
[14] = tested on: Neurovaccinia virus; assay: Neurovaccinia in mice; conditions: single dose level, three instances
[15] = tested on: viral infections; assay: Antiviral screening in animals, general statements; conditions: mouse, in vivo

## CC(C=NNC(=N)N)=NNC(=N)N [Methylgloxal-bis-guanylhydrazone]
[1]
  toxicity at upper limit: toxic
[1]; lower limit, 0.125 mg per ml
  inhibition: Ninety

## NN.O=S(=O)(O)O [Hydrazine Sulfate, hydrazine sulfate]
[2]; 10 to 100 mg/ml
  toxic effects on the cells: toxic effects on the cells were clearly evident
[2]; below the level of toxicity
  antiviral activity, plaque reduction: no antiviral activity was demonstrated
[3]; total dose 5 μg
  No. animals surviving after 6-9 days: 3
[3]; total dose .0005 μg
  No. animals surviving after 6-9 days: 3
  No. animals surviving when 100% (or given fraction) of controls are dead: 3
  Survivors: 3
[3]; total dose .005 μg
  No. animals surviving after 6-9 days: 4
  No. animals surviving when 100% (or given fraction) of controls are dead: 4
  Survivors: 4
[3]; total dose .05 μg
  No. animals surviving after 6-9 days: 1
  No. animals surviving when 100% (or given fraction) of controls are dead: 1
  Survivors: 0
[3]; total dose .5 μg
  No. animals surviving after 6-9 days: 3
  Survivors: 1
[4]
  concentrations with antiviral activity: 8 to 66 µg/mL

## NNC(N)=S [Thiosemicarbazide, thiosemicarbazide]
[5]; 2 μg
  Deaths on day 1: 3
  Deaths on day 3: 5
  Deaths on day 4: 3
  No. dying 5-22 day: 0
  No. living longer than controls: 0
  Total deaths, 4th day: 12
[5]; 20 μg
  Deaths on day 2: 4
  Deaths on day 3: 6
  No. dying 5-22 day: 0
  No. living longer than controls: 0
  Total deaths, 4th day: 12
[5]; .00005 μg
  Deaths on day 1: 2
  Deaths on day 2: 5
  Deaths on day 3: 2
  No. dying 5-22 day: 0
  Total deaths, 4th day: 10
[5]; .0005 μg
  Deaths on day 1: 2
  Deaths on day 2: 3
  Deaths on day 3: 2
  Deaths on day 4: 3
  No. dying 5-22 day: 0
  Total deaths, 4th day: 10
[5]; .005 μg
  Deaths on day 1: 4
  Deaths on day 2: 3
  Deaths on day 3: 3
  No. living longer than controls: 2
  Total deaths, 4th day: 10
[5]; .05 μg
  Deaths on day 2: 3
  Deaths on day 3: 5
  No. dying 5-22 day: 0
  Total deaths, 4th day: 9
[5]; .5 μg
  Deaths on day 1: 3
  Deaths on day 2: 4
  Deaths on day 3: 2
  Deaths on day 4: 2
  No. dying 5-22 day: 0
  Total deaths, 4th day: 11
[5]; all doses
  Total no. living longer than controls: 7
[6]; total dose .05 μg
  No. animals surviving after 5-9 days: 5
[6]; total dose .5 μg
  No. animals surviving after 5-9 days: 3
  Survivors: 0
[6]; total dose .5 μg, listed as thiosemicarbazide
  No. animals surviving after 5-9 days: 7 and 6
[7]; total dose 5 μg
  No. animals surviving after 6-10 days: 3
[7]; total dose .005 μg
  No. animals surviving after 6-10 days: 3
  No. animals surviving when 100% (or given fraction) of controls are dead: 3
  Survivors: 3
[7]; total dose .5 μg
  No. animals surviving when 100% (or given fraction) of controls are dead: 0
  Survivors: 0
[8]; total dose 5 μg
  No. animals surviving after 6-8 days: 3
  Survivors: 3
[8]; total dose .0005 μg
  Survivors: 0
[8]; total dose .005 μg
  Survivors: 0
[9]; total dose 5 μg
  Survivors: 0
[9]; total dose .005 μg
  Survivors: 0
[9]; total dose .05 μg
  Survivors: 0
[9]; total dose .5 μg
  Survivors: 0
[10]; total dose .0000005 μg
  Survivors: 0
[10]; total dose .000005 μg
  No. animals surviving after 6 days: 2
[10]; total dose .00005 μg
  No. animals surviving after 6 days: 5
[10]; total dose .0005 μg
  Survivors: 0
[10]; total dose .005 μg
  Survivors: 0
[11]; 10 ng, day 12
  Statistical Significance of Tail Lesions: < .05
[11]; 10 ng, day 14
  Statistical Significance of Tail Lesions: < .05
[11]; 10 ng, day 17
  Statistical Significance of Tail Lesions: < .05
[11]; 10 ng, day 21
  Statistical Significance of Tail Lesions: < .05
[11]; 1 μg, day 5
  Statistical Significance of Tail Lesions: < .01
[11]; 1 μg, day 6
  Statistical Significance of Tail Lesions: < .01
[11]; 1 μg, day 7
  Statistical Significance of Tail Lesions: < .01
[11]; 1 μg, day 8
  Statistical Significance of Tail Lesions: < .01
[11]; 1 μg, day 10
  Statistical Significance of Tail Lesions: < .01
[11]; 1 μg, day 11
  Statistical Significance of Tail Lesions: < .01
[11]; 1 μg, day 12
  Statistical Significance of Tail Lesions: < .01
[11]; 1 μg, day 14
  Statistical Significance of Tail Lesions: < .01
[11]; 1 μg, day 17
  Statistical Significance of Tail Lesions: < .01
[11]; 1 μg, day 21
  Statistical Significance of Tail Lesions: < .01
[11]; 10 [μg], day 6
  Statistical Significance of Tail Lesions: < .01
[11]; 10 [μg], day 10
  Statistical Significance of Tail Lesions: < .05
[11]; 10 [μg], day 11
  Statistical Significance of Tail Lesions: < .01
[11]; 10 [μg], day 12
  Statistical Significance of Tail Lesions: < .01
[11]; 10 [μg], day 14
  Statistical Significance of Tail Lesions: < .01
[11]; 10 [μg], day 17
  Statistical Significance of Tail Lesions: < .01
[11]; 10 [μg], day 21
  Statistical Significance of Tail Lesions: < .01
[11]; 100 [ng], day 8
  Statistical Significance of Tail Lesions: < .05
[11]; 100 [ng], day 10
  Statistical Significance of Tail Lesions: < .01
[11]; 100 [ng], day 11
  Statistical Significance of Tail Lesions: < .01
[11]; 100 [ng], day 12
  Statistical Significance of Tail Lesions: < .01
[11]; 100 [ng], day 14
  Statistical Significance of Tail Lesions: < .01
[11]; 100 [ng], day 17
  Statistical Significance of Tail Lesions: < .01
[11]; 100 [ng], day 21
  Statistical Significance of Tail Lesions: < .01
[12]; 0.0000025 μg/kg, Test 2
  approximate percentage confluency of the pox: 85%
[12]; 0.000025 μg/kg, Test 2
  approximate percentage confluency of the pox: 25%
[12]; 0.00025 μg/kg, Test 2
  approximate percentage confluency of the pox: 40%
[12]; 0.0025 μg/kg, Duplicate Experiments
  approximate percentage confluency of the pox: 75% and 60%
[12]; 0.0025 μg/kg, Test 1
  approximate percentage confluency of the pox: 2%
[12]; 0.0025 μg/kg, Test 2
  approximate percentage confluency of the pox: 80%
[12]; 0.0025 μg/kg, Test 3
  approximate percentage confluency of the pox: 85%
[12]; 0.025 μg/kg, Duplicate Experiments
  approximate percentage confluency of the pox: 75% and 80%
[12]; 0.025 μg/kg, Test 1
  approximate percentage confluency of the pox: 5%
[12]; 0.025 μg/kg, Test 2
  approximate percentage confluency of the pox: 5%
[12]; 0.025 μg/kg, Test 3
  approximate percentage confluency of the pox: 75% and 90%
[12]; 0.25 μg/kg, Test 1
  approximate percentage confluency of the pox: 10%
[12]; 0.25 μg/kg, Test 2
  approximate percentage confluency of the pox: 10%
[12]; 0.25 μg/kg, Test 3
  approximate percentage confluency of the pox: 30% and 40%
[12]; 2.5 μg/kg, Duplicate Experiments
  approximate percentage confluency of the pox: 30% and 20%
[12]; 2.5 μg/kg, Test 1
  approximate percentage confluency of the pox: 50%
[12]; 2.5 μg/kg, Test 2
  approximate percentage confluency of the pox: 80%
[12]; 2.5 μg/kg, Test 3
  approximate percentage confluency of the pox: 30% and 20%
[12]; 25 μg/kg, Test 1
  approximate percentage confluency of the pox: 80%
[12]; 25 μg/kg, Test 2
  approximate percentage confluency of the pox: 10%
[12]; 250 μg/kg, Test 1
  approximate percentage confluency of the pox: 80%
[12]; dose 0.25 μg/kg
  significance (T test): < .01
[12]; dose 2.5 μg/kg
  significance (T test): < .01
[12]; rabbit, in vivo
  effect on pox formation: highly significant and reproducible protective effects
[13]
  effect on pox formation on the membrane: No effect
[3]; mouse, in vivo
  activity in words: quite significant protection
[3]; total dose .000005 μg
  No. animals surviving when 100% (or given fraction) of controls are dead: 0
  Survivors: 0
[3]; total dose .00005 μg
  No. animals surviving after 6-9 days: 6
  No. animals surviving when 100% (or given fraction) of controls are dead: 3
  Survivors: 3
[3]; total dose .005 μg
  No. animals surviving after 6-9 days: 5 and 3 and 6
[3]; total dose .5 μg
  No. animals surviving after 6-9 days: 3
[14]
  surviving animals: one
[15]
  activity in words: active

From patent US4027039A (priority 1975, dated 1977)
